Measured values reported in publication PMC5430407 (ACS Medicinal Chemistry Letters, 2017).

How the values were obtained:
IDO1 in HeLa cells = IDO1 in HeLa cells (Homo sapiens, UniProt P14902); test: HeLa cell-based IDO1/kynurenine assay; details: calculated using HeLa pIC50; for LLE (lipophilic ligand efficiency): LLE = pIC50 – cLogP
Caco-2 cells = test: Caco-2 permeability; assay type: in vitro ADME; details: A-B, 50 µM, 120 min
[1] = Allometric scaling, predicted human dose; details: allometric scaling to cover the WB IC50 at trough
plasma kynurenine = test: PK/PD study in mice, plasma kynurenine; assay type: in vivo, mouse; details: wild-type mice, once daily oral dosing at 50 mg/kg
[2] = 28-day IND toxicology study in mice; assay type: in vivo, mouse
[3] = 28-day IND toxicology study in dogs; assay type: in vivo, dog
[4] = test system: CEREP panel of over 50 receptors and enzymes; test: CEREP panel
CT26 tumor = CT26 tumor growth in immune-compromised mice; assay type: in vivo, mouse; details: immune-compromised mice (nu/nu)

IDO1 in HeLa cells, sequence (P14902 whole entry): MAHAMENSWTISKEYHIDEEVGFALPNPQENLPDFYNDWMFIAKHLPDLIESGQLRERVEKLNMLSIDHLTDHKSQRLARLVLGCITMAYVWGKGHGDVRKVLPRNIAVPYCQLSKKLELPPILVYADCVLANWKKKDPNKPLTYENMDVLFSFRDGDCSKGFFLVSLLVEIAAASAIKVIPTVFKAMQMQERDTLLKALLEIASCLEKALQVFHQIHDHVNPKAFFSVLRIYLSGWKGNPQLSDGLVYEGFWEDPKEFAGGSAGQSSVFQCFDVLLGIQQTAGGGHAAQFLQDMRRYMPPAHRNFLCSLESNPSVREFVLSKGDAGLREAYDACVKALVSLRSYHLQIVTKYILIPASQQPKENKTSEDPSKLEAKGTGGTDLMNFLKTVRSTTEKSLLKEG

SMILES | LE (ligand efficiency) (IDO1 in HeLa cells) | Caco2 Pm (Caco-2 cells) | further results
CC(=O)NCCNc1nonc1/C(=N/O)Nc1ccc(F)c(Br)c1 [Compound 4d] | 0.45 | 19 × (10)^−6 cm/s | 
NCCNc1nonc1/C(=N/O)Nc1ccc(F)c(Br)c1 [Compound 4c] | 0.47 | 1.8 × (10)^−6 cm/s | 
NS(=O)(=O)NCCNc1nonc1C(=NO)Nc1ccc(F)c(Cl)c1 [Compound 4g] |  | 4.3 × (10)^−6 cm/s | 
CS(=O)(=O)NCCNc1nonc1C(=NO)Nc1ccc(F)c(Br)c1 [Compound 4e] |  |  | LLE (lipophilic ligand efficiency) (IDO1 in HeLa cells): 5.8
NS(=O)(=O)NCCNc1nonc1C(=NO)Nc1ccc(F)c(Br)c1 [Compound 4f, epacadostat] |  |  | predicted oral dosing in humans [1]: 50 mg twice-a-day; plasma kynurenine level reached (basal level of IDO null mice) (plasma kynurenine): ~400 nM; tolerability [2]: well-tolerated; tolerability [3]: well-tolerated; in vitro toxicology result, CEREP panel [4]: clean; tumor growth inhibition, treated vs control animals (CT26 tumor): no difference

Second part, led by results:

LE (ligand efficiency) (IDO1 in HeLa cells) | Caco2 Pm (Caco-2 cells) | SMILES | further results
0.45 | 44 × (10)^−6 cm/s | COCCNc1nonc1/C(=N/O)Nc1ccc(F)c(Br)c1 [Compound 4a] | 
0.51 | 31 × (10)^−6 cm/s | OCCNc1nonc1/C(=N/O)Nc1ccc(F)c(Br)c1 [Compound 4b] | LLE (lipophilic ligand efficiency) (IDO1 in HeLa cells): 5.8
